# Measured values published in patent publication US20150111852A1, “1-Di(sec-butyl)-phosphinoyl-pentane (dapa-2-5) as a topical agent” (priority 2013, published 2015).
# “And” between values parts separate entries of the source, which are not always exact repeats. Equal values may be shown once. “Also recorded” adds a separate entry of the source.
# Columns and labels:
# [1] = system: oropharynx; assay: Sensory effects and cold discomfort of compounds given orally in ODT (general evaluation); assay type: in vivo, human; details: for distribution of the sensation (throat vs chest): oral ODT
# Protocol: The correlation between a chemical's potency at the TRPM8 receptor (measured by the EC50 μM) and potency to evoke sensory events in the oropharynx is complex.
# When a test compound is applied to non-keratinizng bodily surfaces (e.g., oropharyngeal surface), it is possible to characterize the resulting sensations.
# The sensations are akin to rapid drinking of cold water mixed and equilibrated with ice chips. The intense cold is further accentuated if the drink is acidified, for example, with lemonade. The sensations of dull and intense cold on the surface of the oropharynx can be described as painful, uncomfortable, and aversive. The term “icy cold” is used to describe these adverse intense cold sensations.
# Together, these three types of sensations—“icy cold”, coldness in the chest, and systemic coldness—is termed “cold discomfort”. […] The ideal agent must have a circumscribed site of action, and the intensity of the sensation should not cause “icy cold”, coldness in the chest, or systemic chills.
# [2] = target: T1, cloned hTRPM8 channel (encoded by the human TRPM8 gene, expressed in CHO cells) (Homo sapiens, UniProt Q7Z2W7); assay: TRPM8 agonist FLIPR Fluo-8 calcium assay; assay type: cell-based; details: for TRPM8 Relative Potency: DAPA-1-7 = 1
# T1 construct: host or cells: CHO cells, stably transfected
# Protocol: The in vitro effects of test compounds were evaluated on cloned hTRPM8 channel (encoded by the human TRPM8 gene, expressed in CHO cells) using a Fluo-8 calcium kit and a Fluorescence Imaging Plate Reader (FLIPR^TETRA™) instrument.
# Test compounds and positive control solutions were prepared by diluting stock solutions in a HEPES-buffered physiological saline (HBPS) solution. The test compound and control formulations were loaded in polypropylene or glass-lined 384-well plates, and placed into the FLIPR instrument (Molecular Devices Corporation, Union City, Calif., USA). The test compounds were evaluated at 4 or 8 concentrations with n=4 replicates per determination. […] The test cells were Chinese Hamster Ovary (CHO) cells stably transfected with human TRPM8 cDNAs.
# For the FLIPR^TETRA™ assay, cells were plated in 384-well black wall, flat clear-bottom microtiter plates (Type: BD Biocoat Poly-D-Lysine Multiwell Cell Culture Plate) at approximately 30,000 cells per well. Cells were incubated at 37° C. overnight to reach a near confluent monolayer appropriate for use in a fluorescence assay. The test procedure was to remove the growth media and to add 40 μL of HBPS containing Fluo-8 for 30 min at 37° C. 10 μL of test compound, vehicle, or control solutions in HBPS were added to each well and read for 4 min.
# Concentration-response data were analyzed via the FLIPR Control software that is supplied with the FLIPR System (MDS-AT) and fitted to a Hill equation of the following form: […]
# where: “Base” is the response at low concentrations of test compound; “Max” is the maximum response at high concentrations; “xhalf” is the EC50, the concentration of test compound producing half-maximal activation; and “rate” is the Hill coefficient. Nonlinear least squares fits were made assuming a simple one-to-one binding model.
# [3] = system: 0.1 N HCl-induced swallowing, pharyngolaryngeal region; assay: Acid-induced swallowing movements in the anesthetized rat; assay type: in vivo; details: for Relative Potency (suppression of swallowing): DAPA-2-5 = 1.0
# From the text: A principal endogenous irritant in the linings of the upper aerodigestive tract is hydrochloric acid. Acid stimulations of the mucosa of the pharynx will elicit reflex swallowing. […] In a rat animal model, solutions of organic acids such as acetic acid and citric acid were effective in eliciting swallowing [Kajii et al., Sour taste stimulation facilitates reflex swallowing from the pharynx and larynx in the rat Physiology & Behavior 77: 321-325, 2002]. In the present discovery, the method for measuring sensory responses to acid was adapted for screening agents that might suppress the sensitivity to hydrochloric acid. Agents that suppress the acid challenge may then have utility in relieving the discomfort of heartburn.
# Experiments were conducted at the Pavlov Institute of Physiology, St. Petersburg, Russia. Adult male Wistar rats, weighing 200 to 400 g, were obtained from the Roppolovo Vivarium. All rats were anesthetized with sodium pentobarbital/urethane and fixed in the supine position. Body temperature was maintained at 37.0° C. with a heating pad. A midline incision was made in the ventral surface of the neck and the trachea was cannulated. A guide tube (polyethylene, diameter 2.2 mm) was fixed at the midline of the hard palate and an internal infusion tube (polyethylene, diameter 0.9 mm) was then placed flush to the end of soft palate. This procedure allows stimulation of the pharyngolaryngeal region with liquids, with minimum mechanical perturbation. An esophageal tube was placed at the thoracic level to drain solutions after infusion. The infused solution was applied to the pharyngolaryngeal region at a flow rate of 1.5 pUs for 20 sec using an infusion pump, giving a total unit volume of approximately 30 μL. Stimulations were applied at intervals of 2 to 3 min, with intervals allowed for rinsing and cleansing with suction. The solutions infused were distilled water, normal saline, 0.1 N hydrochloric acid, or test compounds dissolved in normal saline. A paired unipolar electrode was inserted into unilateral mylohyoid muscle to record electromyogram (EMG) activity and the signal processed for later analysis. Swallowing movements was identified as the EMG activity and could also be visualized as laryngeal movement. The number of swallows in a fixed interval was used as the endpoint.
# The test procedures were similar to those described earlier (see, e.g., Kajii et al., 2002). Also, the drainage of the esophagus was at the thoracic level to avoid mechanical disturbance of the pharynx. The infusion rate of solutions was 1.5 μL/sec for 15 to 18 sec.
# The response to 0.1 N HCl infusion (30 μL over an approximately 18 second period) was highly reproducible. On average there were 36±4 swallowing movements within one min (N=7 rats). This response could be elicited in the same rat over a 2 hour period with a rest period or saline infusions at 10 min intervals.
# The up-down method of Dixon [Efficient analysis of experimental observations. Ann. Rev. […] The EC50 (N=8) for DAPA-2-5 was estimated to be 0.09 mg/mL.
# [4] = target: T2, TRPA1 channels (human TRPA1 gene expressed in CHO cells) (Homo sapiens, UniProt O75762); assay: TRPA1 agonist assay; assay type: cell-based; details: maximum tested concentrations of 100 μM
# T2 construct: expressed in transfected cells; host or cells: CHO cells
# Protocol: To examine the specificity of the test compounds, further studies were conducted on TRPV1 channels (human TRPV1 gene expressed in HEK293 cells) and TRPA1 channels (human TRPA1 gene expressed in CHO cells). The test cells were Chinese Hamster Ovary (CHO) cells or Human Embyronic Kidney (HEK) 293 cells transfected with human TRPV1 or TRPA1 cDNAs.
# T1 sequence (Q7Z2W7 whole entry): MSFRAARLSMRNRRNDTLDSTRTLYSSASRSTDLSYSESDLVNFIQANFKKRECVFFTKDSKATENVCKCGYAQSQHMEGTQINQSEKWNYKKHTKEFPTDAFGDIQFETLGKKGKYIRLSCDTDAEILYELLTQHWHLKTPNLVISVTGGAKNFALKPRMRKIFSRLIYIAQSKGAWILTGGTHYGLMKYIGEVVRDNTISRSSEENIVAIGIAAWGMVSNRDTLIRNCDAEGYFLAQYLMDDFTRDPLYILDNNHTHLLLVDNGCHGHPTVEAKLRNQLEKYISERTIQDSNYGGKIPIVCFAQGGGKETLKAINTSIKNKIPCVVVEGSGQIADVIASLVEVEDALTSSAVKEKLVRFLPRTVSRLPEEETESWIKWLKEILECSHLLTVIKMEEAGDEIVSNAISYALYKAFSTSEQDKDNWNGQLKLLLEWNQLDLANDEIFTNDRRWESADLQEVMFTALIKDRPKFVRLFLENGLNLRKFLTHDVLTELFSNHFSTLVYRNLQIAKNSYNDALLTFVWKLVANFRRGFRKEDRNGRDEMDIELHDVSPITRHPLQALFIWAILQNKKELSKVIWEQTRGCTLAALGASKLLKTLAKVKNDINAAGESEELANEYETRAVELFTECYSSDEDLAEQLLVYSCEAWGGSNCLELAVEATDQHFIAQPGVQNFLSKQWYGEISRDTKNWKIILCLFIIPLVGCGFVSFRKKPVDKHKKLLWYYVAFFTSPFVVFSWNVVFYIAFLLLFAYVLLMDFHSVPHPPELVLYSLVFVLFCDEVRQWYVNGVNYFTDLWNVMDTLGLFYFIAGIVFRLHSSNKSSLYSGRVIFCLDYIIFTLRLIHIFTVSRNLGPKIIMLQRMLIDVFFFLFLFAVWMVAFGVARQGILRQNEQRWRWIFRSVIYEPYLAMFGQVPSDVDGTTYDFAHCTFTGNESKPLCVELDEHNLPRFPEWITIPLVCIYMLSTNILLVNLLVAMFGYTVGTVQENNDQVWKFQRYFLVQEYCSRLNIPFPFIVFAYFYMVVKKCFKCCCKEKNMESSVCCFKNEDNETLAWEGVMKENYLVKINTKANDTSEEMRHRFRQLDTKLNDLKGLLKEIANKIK
# T2 sequence (O75762 whole entry): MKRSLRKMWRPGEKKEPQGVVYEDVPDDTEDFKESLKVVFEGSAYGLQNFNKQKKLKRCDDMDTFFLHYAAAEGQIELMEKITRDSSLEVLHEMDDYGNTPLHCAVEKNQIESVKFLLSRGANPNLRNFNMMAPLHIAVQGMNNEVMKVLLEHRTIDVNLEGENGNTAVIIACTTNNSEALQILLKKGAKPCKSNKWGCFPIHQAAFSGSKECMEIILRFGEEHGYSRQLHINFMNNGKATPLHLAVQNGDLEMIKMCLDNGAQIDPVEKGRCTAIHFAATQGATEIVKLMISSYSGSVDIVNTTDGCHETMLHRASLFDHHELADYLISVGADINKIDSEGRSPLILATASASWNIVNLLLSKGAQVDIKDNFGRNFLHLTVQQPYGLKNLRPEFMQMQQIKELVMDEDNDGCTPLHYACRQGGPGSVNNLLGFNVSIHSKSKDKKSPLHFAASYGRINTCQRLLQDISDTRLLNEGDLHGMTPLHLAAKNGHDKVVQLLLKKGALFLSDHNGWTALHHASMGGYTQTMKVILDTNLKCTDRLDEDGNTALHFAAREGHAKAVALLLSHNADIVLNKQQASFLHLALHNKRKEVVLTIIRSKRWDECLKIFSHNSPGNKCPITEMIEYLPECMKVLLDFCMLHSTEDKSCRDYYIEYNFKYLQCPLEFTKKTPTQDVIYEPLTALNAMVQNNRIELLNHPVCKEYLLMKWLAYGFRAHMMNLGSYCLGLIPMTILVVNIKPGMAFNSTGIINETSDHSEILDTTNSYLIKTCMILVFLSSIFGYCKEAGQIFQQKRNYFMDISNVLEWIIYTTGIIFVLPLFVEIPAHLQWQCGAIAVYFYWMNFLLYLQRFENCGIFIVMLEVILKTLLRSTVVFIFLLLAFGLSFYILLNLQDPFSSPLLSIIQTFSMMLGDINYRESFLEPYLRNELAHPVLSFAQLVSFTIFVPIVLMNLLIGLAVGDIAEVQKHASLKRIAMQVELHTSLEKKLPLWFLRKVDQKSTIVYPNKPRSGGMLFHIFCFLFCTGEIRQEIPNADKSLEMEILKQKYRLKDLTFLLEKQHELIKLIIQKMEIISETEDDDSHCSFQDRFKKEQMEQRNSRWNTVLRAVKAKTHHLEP
Compound,Relative Potency to L-menthol [2],TRPM8 Relative Potency [2],distribution of the sensation (throat vs chest) [1],Relative Potency (suppression of swallowing) [3],sensation at increased dose ([1]; dose increased to 8 mg (per tablet)),duration of “dynamic cool” in the oropharynx ([1]; in vivo),rank in TRPM8 potency among the 21 compounds tested [2],agonist activity on TRPA1 channels [4],"swallows after second acid challenge ([3]; DAPA-2-5 0.4 mg/mL, 10 min after, 8 min after) [swallows per min]","swallows after third acid challenge ([3]; DAPA-2-5 0.4 mg/mL, 15 min after, after saline rinse, 22 min after) [swallows/min]","swallows after first acid challenge ([3]; DAPA-2-5 0.4 mg/mL, challenge 5 min later, within 3 min) [swallows/min]","EC50 ([3]; Rattus norvegicus, up-down method, 50% reduction of swallowing frequency, N=4 to 8, read-out: EC50 ± S.E.M. (mg/mL), suppression of acid-induced swallowing) [mg/mL]","Comments (duration of inhibition) ([3]; rat, in vivo)","Comments (reversibility of inhibition) ([3]; rat, in vivo)","inhibitory activity for swallowing relative to DAPA-2-5 ([3]; rat, in vivo) [%]","systemic sensations of cold ([1]; higher oral doses (e.g., 5 mg or more))"
"CCCCCCP(=O)(C(C)C)C(C)C [DAPA-1-6, 1-Di(isopropyl)-phosphinoyl-hexane]",1.6,–,"sensations of cold in the chest; also recorded: spreads behind the sternum, into the chest",–,–,–,–,–,–,–,–,–,–,–,–,–
"CCCCCP(=O)(C(C)CC)C(C)CC (stereo not shown) [DAPA-2-5, 1-Di(sec-butyl)-phosphinoyl-pentane]",2.2,0.41,remained localized to the throat and upper esophagus,1.0,"burning penetrating quality to the sensation, but it was not aversive; also recorded: did not produce stinging, adverse tastes, or “icy cold” or cold discomfort",5 to 15 min and 10 to 15 min,12,did not exhibit any agonist activity,9,27,3,0.09,~15 min,reversible;,–,–
"CCCCCCCP(=O)(C(C)CC)C(C)CC (stereo not shown) [DAPA-2-7, 1-Di(sec-butyl) phosphinoyl-heptane]",3.4,0.64,"sensations of cold in the chest; also recorded: spreads behind the sternum, into the chest",0.45,–,–,–,did not exhibit any agonist activity,–,–,–,–,>~30 min,long-lasting;,–,sensations of cold on other body surfaces

# Continued, in another order:
Relative Potency to L-menthol [2],TRPM8 Relative Potency [2],Compound,distribution of the sensation (throat vs chest) [1],Relative Potency (suppression of swallowing) [3],sensation at increased dose ([1]; dose increased to 8 mg (per tablet)),duration of “dynamic cool” in the oropharynx ([1]; in vivo),rank in TRPM8 potency among the 21 compounds tested [2],agonist activity on TRPA1 channels [4],"swallows after second acid challenge ([3]; DAPA-2-5 0.4 mg/mL, 10 min after, 8 min after) [swallows per min]","swallows after third acid challenge ([3]; DAPA-2-5 0.4 mg/mL, 15 min after, after saline rinse, 22 min after) [swallows/min]","swallows after first acid challenge ([3]; DAPA-2-5 0.4 mg/mL, challenge 5 min later, within 3 min) [swallows/min]","EC50 ([3]; Rattus norvegicus, up-down method, 50% reduction of swallowing frequency, N=4 to 8, read-out: EC50 ± S.E.M. (mg/mL), suppression of acid-induced swallowing) [mg/mL]","Comments (duration of inhibition) ([3]; rat, in vivo)","Comments (reversibility of inhibition) ([3]; rat, in vivo)","inhibitory activity for swallowing relative to DAPA-2-5 ([3]; rat, in vivo) [%]","systemic sensations of cold ([1]; higher oral doses (e.g., 5 mg or more))"
5.4,1,"CCCCCCCP(=O)(C(C)C)C(C)C [DAPA-1-7, 1-Di(isopropyl)-phosphinoyl-heptane]","spreads behind the sternum, into the chest",0.11,–,–,–,–,–,–,–,–,–,–,–,–
4.7,0.87,"CCCCCCP(=O)(C(C)CC)C(C)CC (stereo not shown) [DAPA-2-6, 1-Di(sec-butyl) phosphinoyl-hexane]","sensations of cold in the chest; also recorded: spreads behind the sternum, into the chest",0.05,–,–,–,did not exhibit any agonist activity,–,–,–,–,–,–,5,–
2.9,0.71,"CCCCCCCCP(=O)(C(C)CC)C(C)CC (stereo not shown) [DAPA-2-8, 1-Di(sec-butyl) phosphinoyl-octane]",–,0.16,–,–,–,–,–,–,–,–,–,–,–,–
